Measurements taken from patent US9315453B2, “4-(3-benzyloxyphenylthio)-2-chloro-1-(3-nitropropyl)benzene crystal” (KYORIN PHARMACEUTICAL CO., LTD., priority 2012, dated 2016).

Legend:
[1] = Stability test of the crystals under accelerated and long-term storage conditions; type: physicochemical; conditions: 6 months after the start of the test, crystals obtained in Example 1
Procedure: The crystals of the compound 1 obtained in Example 1 were subjected to a stability test under accelerated conditions (40° C./75% RH) and long-term storage conditions (25° C./60% RH).

[2] = accelerated conditions (40° C./75% RH)
[3] = long-term storage conditions (25° C./60% RH)

O=[N+]([O-])CCCc1ccc(Sc2cccc(OCc3ccccc3)c2)cc1Cl [compound 1, 4-(3-benzyloxyphenylthio)-2-chloro-1-(3-nitropropyl)benzene]
change in the appearance of the crystals [1, 2]: No change in the appearance | formation of decomposition products [1, 2]: no decomposition products were formed | change in the appearance of the crystals [1, 3]: No change in the appearance | formation of decomposition products [1, 3]: no decomposition products were formed | melting point: 46 to 47 °C
